Key:
[1] = system: Tyrosine-protein kinase ABL1 (Homo sapiens), P00519 [F317I]; assay: Inhibition of human phosphorylated ABL1 F317I mutant (S229 to K512 residues) expressed in mammalian expression system at 1 uM by Kinomescan method relative to control
[2] = target: RAC-beta serine/threonine-protein kinase (Homo sapiens) (UniProt P31751); assay: Inhibition of wild-type human partial length AKT2 expressed in bacterial expression system at 1 uM by Kinomescan method relative to control
[3] = target: Cyclin-dependent kinase 4 (Homo sapiens) (UniProt P11802); assay: Inhibition of wild-type human full length CDK4 (M1 to E303 residues) expressed in mammalian expression system at 1 uM by Kinomescan method relative to control
[4] = target: Megakaryocyte-associated tyrosine-protein kinase (Homo sapiens) (UniProt P42679); assay: Inhibition of wild-type human full length CTK (M43 to P508 residues) expressed in mammalian expression system at 1 uM by Kinomescan method relative to control
Sequence of Megakaryocyte-associated tyrosine-protein kinase (Homo sapiens) (P42679 whole entry, the tested form may be a part): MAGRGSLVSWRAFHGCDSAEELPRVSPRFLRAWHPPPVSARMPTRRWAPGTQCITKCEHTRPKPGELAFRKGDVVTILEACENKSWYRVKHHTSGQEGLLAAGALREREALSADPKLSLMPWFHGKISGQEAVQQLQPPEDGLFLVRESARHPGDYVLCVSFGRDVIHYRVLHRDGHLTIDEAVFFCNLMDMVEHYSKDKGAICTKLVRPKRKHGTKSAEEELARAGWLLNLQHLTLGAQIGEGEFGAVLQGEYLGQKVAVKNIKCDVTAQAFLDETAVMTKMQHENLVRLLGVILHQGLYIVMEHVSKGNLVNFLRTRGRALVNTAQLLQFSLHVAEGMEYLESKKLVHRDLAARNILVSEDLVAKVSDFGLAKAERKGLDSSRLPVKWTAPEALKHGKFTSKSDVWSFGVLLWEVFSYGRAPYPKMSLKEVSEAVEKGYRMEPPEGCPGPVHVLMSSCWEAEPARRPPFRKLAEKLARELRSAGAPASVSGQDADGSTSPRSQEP

[5] = target: Ephrin type-A receptor 1 (Homo sapiens) (UniProt P21709); assay: Inhibition of wild-type human partial length EPHA1 (V588 to I913 residues) expressed in bacterial expression system at 1 uM by Kinomescan method relative to control
[6] = target: Ephrin type-A receptor 5 (Homo sapiens) (UniProt P54756); assay: Inhibition of wild-type human partial length EPHA5 (T627 to V930 residues) expressed in bacterial expression system at 1 uM by Kinomescan method relative to control
[7] = target: Hormonally up-regulated neu tumor-associated kinase (Homo sapiens) (UniProt P57058); assay: Inhibition of wild-type human partial length HUNK (A31 to K354 residues) expressed in bacterial expression system at 1 uM by Kinomescan method relative to control
[8] = target: Cyclin-dependent kinase 14 (Homo sapiens) (UniProt O94921); assay: Inhibition of wild-type human full length PFTK1 (M1 to H451 residues) expressed in bacterial expression system at 1 uM by Kinomescan method relative to control
[9] = target: Interferon-induced, double-stranded RNA-activated protein kinase (Homo sapiens) (UniProt P19525); assay: Inhibition of wild-type human partial length PRKR (F247 to C551 residues) expressed in bacterial expression system at 1 uM by Kinomescan method relative to control
[10] = target: Serine/threonine-protein kinase SIK3 (Homo sapiens) (UniProt Q9Y2K2); assay: Inhibition of wild-type human partial length QSK (A90 to L395 residues) expressed in mammalian expression system at 1 uM by Kinomescan method relative to control
Sequence of Serine/threonine-protein kinase SIK3 (Homo sapiens) (Q9Y2K2 whole entry, looked up, the tested form may be a part): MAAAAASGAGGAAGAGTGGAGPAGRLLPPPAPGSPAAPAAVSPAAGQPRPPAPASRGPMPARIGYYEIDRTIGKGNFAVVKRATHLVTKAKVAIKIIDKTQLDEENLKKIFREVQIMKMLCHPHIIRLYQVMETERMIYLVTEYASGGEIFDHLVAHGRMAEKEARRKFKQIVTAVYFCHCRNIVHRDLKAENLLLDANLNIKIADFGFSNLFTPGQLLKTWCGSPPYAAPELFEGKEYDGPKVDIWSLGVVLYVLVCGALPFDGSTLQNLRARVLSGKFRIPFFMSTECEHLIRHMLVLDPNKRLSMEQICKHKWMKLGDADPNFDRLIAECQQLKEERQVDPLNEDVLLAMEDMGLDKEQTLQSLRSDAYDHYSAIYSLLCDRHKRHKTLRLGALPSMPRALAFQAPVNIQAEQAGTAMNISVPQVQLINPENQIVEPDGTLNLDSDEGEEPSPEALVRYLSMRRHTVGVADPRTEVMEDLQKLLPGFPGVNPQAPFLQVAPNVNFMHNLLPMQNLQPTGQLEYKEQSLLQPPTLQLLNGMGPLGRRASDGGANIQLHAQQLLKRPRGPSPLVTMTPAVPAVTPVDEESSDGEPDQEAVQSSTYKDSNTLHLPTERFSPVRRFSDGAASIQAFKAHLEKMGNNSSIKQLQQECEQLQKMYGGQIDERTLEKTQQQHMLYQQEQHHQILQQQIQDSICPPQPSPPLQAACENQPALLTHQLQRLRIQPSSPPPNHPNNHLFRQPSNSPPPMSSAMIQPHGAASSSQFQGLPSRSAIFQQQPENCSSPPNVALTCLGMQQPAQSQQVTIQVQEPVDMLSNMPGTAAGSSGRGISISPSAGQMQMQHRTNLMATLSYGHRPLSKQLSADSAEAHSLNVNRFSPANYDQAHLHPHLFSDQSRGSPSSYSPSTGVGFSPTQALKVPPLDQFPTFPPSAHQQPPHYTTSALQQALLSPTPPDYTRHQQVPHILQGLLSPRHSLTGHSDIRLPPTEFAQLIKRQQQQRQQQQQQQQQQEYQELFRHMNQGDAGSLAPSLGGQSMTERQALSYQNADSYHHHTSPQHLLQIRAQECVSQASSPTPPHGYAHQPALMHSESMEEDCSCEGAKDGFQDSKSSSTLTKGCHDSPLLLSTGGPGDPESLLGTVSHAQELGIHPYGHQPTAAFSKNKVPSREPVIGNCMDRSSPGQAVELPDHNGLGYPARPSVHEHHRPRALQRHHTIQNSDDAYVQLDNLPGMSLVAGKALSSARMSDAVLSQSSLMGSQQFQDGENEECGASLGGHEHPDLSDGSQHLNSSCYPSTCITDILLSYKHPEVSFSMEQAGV

[11] = system: Tyrosine-protein kinase ABL1 (Homo sapiens), P00519 [Q252H]; assay: Inhibition of human phosphorylated ABL1 Q252H mutant expressed in mammalian expression system at 10 uM by Kinomescan method relative to control
[12] = target: Death-associated protein kinase 2 (Homo sapiens) (UniProt Q9UIK4); assay: Inhibition of wild-type human full length DAPK2 (M1 to S370 residues) expressed in bacterial expression system at 10 uM by Kinomescan method relative to control
[13] = target: Serine/threonine-protein kinase 17B (Homo sapiens) (UniProt O94768); assay: Inhibition of wild-type human full length DRAK2 (M1 to C372 residues) expressed in bacterial expression system at 10 uM by Kinomescan method relative to control
[14] = target: Receptor tyrosine-protein kinase erbB-3 (Homo sapiens) (UniProt P21860); assay: Inhibition of wild-type human partial length ERBB3 (G684 to A987 residues) expressed in mammalian expression system at 10 uM by Kinomescan method relative to control
[15] = target: Serine/threonine-protein kinase haspin (Homo sapiens) (UniProt Q8TF76); assay: Inhibition of wild-type human partial length HASPIN (I452 to K798 residues) expressed in mammalian expression system at 10 uM by Kinomescan method relative to control
[16] = target: Inhibitor of nuclear factor kappa-B kinase subunit beta (Homo sapiens) (UniProt O14920); assay: Inhibition of wild-type human full length IKK-beta (M1 to S756 residues) expressed in mammalian expression system at 10 uM by Kinomescan method relative to control
Sequence of Inhibitor of nuclear factor kappa-B kinase subunit beta (Homo sapiens) (O14920 whole entry, the tested form may be a part): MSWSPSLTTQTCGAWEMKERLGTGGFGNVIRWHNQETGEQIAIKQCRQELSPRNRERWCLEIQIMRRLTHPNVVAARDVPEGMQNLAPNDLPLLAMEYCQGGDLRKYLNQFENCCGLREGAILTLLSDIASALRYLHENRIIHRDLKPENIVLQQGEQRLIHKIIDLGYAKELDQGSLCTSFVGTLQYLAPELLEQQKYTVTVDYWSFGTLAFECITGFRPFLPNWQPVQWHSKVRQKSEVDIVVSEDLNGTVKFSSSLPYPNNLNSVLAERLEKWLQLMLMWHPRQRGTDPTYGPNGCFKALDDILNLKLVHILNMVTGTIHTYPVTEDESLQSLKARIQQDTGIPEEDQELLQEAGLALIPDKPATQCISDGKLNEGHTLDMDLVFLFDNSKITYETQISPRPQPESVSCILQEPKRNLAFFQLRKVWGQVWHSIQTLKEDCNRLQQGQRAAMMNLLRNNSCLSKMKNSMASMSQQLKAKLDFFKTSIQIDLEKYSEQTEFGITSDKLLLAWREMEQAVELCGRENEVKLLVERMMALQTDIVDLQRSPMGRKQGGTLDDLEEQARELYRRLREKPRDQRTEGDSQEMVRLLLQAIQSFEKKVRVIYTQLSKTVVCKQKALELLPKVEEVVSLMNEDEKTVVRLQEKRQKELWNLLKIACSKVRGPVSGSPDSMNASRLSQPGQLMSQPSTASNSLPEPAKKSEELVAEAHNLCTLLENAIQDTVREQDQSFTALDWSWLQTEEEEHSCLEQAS

[17] = target: Microtubule-associated serine/threonine-protein kinase 1 (Homo sapiens) (UniProt Q9Y2H9); assay: Inhibition of wild-type human partial length MAST1 (S346 to V730 residues) expressed in mammalian expression system at 10 uM by Kinomescan method relative to control
Sequence of Microtubule-associated serine/threonine-protein kinase 1 (Homo sapiens) (Q9Y2H9 whole entry, looked up, the tested form may be a part): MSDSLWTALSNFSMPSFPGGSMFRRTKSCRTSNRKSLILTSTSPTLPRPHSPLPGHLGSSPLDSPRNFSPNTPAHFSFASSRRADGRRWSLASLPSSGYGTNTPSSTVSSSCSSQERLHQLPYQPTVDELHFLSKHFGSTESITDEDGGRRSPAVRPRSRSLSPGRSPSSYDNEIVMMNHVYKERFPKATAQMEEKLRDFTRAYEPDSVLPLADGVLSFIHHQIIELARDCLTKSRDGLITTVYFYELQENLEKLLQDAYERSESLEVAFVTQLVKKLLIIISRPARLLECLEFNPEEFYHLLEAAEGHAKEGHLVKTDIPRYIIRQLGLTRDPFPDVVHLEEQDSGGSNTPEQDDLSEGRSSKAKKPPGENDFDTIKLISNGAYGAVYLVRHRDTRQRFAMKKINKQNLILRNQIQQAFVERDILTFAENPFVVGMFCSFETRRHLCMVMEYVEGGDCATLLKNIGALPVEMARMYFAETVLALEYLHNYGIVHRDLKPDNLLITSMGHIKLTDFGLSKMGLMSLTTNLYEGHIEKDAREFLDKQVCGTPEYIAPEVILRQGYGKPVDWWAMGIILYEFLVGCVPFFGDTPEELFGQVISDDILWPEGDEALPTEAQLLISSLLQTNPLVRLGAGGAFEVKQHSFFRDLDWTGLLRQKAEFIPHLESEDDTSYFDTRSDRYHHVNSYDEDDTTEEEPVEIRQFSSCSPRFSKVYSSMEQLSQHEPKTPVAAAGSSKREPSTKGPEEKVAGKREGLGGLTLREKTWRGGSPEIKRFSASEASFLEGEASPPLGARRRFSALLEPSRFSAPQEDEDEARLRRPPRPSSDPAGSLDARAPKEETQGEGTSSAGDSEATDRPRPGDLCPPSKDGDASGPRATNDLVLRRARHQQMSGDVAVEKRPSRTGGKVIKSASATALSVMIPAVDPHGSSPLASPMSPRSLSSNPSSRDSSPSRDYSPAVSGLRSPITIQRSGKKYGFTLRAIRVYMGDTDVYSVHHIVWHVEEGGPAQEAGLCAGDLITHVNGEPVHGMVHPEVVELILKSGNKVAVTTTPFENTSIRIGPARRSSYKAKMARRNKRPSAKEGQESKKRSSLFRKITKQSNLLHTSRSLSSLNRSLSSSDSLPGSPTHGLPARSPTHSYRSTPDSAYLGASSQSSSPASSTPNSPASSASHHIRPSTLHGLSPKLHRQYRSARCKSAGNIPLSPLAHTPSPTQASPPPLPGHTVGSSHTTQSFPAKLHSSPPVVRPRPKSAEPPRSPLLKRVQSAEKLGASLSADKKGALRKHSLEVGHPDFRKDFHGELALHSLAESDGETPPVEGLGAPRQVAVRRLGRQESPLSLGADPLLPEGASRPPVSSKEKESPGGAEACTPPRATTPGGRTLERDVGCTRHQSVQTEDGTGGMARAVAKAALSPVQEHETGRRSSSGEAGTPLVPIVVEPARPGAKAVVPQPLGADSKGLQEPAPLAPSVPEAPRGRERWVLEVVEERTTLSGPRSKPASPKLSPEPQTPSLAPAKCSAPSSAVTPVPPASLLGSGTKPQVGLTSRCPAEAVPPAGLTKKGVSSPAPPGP

[18] = target: Cyclin-dependent kinase 2 homolog (Plasmodium falciparum (isolate 3D7)) (UniProt P61075); assay: Inhibition of wild-type Plasmodium falciparum full length PK5 (M1 to N288 residues) expressed in mammalian expression system at 10 uM by Kinomescan method relative to control
[19] = system: Phosphatidylinositol 4,5-bisphosphate 3-kinase catalytic subunit alpha isoform (Homo sapiens), P42336 [E545A]; assay: Inhibition of human partial length PIK3CA E545A mutant (R108 to N1068 residues) expressed in mammalian expression system at 10 uM by Kinomescan method relative to control
[20] = target: Serine/threonine-protein kinase pim-2 (Homo sapiens) (UniProt Q9P1W9); assay: Inhibition of wild-type human partial length PIM2 (M1 to E291 residues) expressed in bacterial expression system at 10 uM by Kinomescan method relative to control
[21] = target: Protein kinase C epsilon type (Homo sapiens) (UniProt Q02156); assay: Inhibition of wild-type human partial length PRKCE (A378 to P737 residues) expressed in mammalian expression system at 10 uM by Kinomescan method relative to control
[22] = target: cAMP-dependent protein kinase catalytic subunit PRKX (Homo sapiens) (UniProt P51817); assay: Inhibition of wild-type human partial length PRKX (M1 to F358 residues) expressed in bacterial expression system at 10 uM by Kinomescan method relative to control
Sequence of cAMP-dependent protein kinase catalytic subunit PRKX (Homo sapiens) (P51817 whole entry, the tested form may be a part): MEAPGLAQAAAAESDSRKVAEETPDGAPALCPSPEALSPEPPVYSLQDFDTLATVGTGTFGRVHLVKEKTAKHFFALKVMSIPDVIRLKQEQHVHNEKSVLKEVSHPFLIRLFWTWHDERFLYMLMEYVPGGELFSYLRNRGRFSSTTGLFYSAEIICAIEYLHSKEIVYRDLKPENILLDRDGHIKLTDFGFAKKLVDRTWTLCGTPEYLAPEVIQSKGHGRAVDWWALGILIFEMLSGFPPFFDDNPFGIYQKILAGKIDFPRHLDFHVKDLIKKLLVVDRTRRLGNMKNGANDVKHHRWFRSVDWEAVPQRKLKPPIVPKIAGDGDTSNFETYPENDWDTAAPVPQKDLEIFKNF

[23] = target: Serine/threonine-protein kinase SIK3 (Homo sapiens) (UniProt Q9Y2K2); assay: Inhibition of wild-type human partial length QSK (A90 to L395 residues) expressed in mammalian expression system at 10 uM by Kinomescan method relative to control
[24] = target: Receptor-interacting serine/threonine-protein kinase 2 (Homo sapiens) (UniProt O43353); assay: Inhibition of wild-type human partial length RIPK2 (M1 to K310 residues) expressed in bacterial expression system at 10 uM by Kinomescan method relative to control
Sequence of Receptor-interacting serine/threonine-protein kinase 2 (Homo sapiens) (O43353 whole entry, the tested form may be a part): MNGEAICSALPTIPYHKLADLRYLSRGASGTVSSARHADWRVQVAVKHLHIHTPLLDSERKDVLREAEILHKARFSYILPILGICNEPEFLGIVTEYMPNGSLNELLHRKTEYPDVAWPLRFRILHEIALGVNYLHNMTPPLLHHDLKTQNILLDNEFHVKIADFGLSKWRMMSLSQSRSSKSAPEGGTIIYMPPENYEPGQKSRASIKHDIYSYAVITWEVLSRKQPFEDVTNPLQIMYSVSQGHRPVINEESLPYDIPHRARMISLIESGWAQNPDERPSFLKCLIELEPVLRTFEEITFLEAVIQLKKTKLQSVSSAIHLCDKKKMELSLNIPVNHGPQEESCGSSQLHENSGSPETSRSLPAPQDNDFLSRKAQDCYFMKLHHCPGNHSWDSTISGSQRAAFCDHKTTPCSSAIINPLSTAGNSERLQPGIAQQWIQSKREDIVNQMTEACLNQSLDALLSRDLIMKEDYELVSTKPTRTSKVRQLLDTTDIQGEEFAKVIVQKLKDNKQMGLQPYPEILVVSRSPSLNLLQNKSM

[25] = target: Serine/threonine-protein kinase Sgk3 (Homo sapiens) (UniProt Q96BR1); assay: Inhibition of wild-type human partial length SGK3 (M119 to L496 residues) expressed in mammalian expression system at 10 uM by Kinomescan method relative to control
[26] = target: Dual specificity testis-specific protein kinase 1 (Homo sapiens) (UniProt Q15569); assay: Inhibition of wild-type human full length TESK1 (R37 to S626 residues) expressed in bacterial expression system at 10 uM by Kinomescan method relative to control
[27] = target: Serine/threonine-protein kinase ULK1 (Homo sapiens) (UniProt O75385); assay: Inhibition of wild-type human partial length ULK1 (M1 to T309 residues) expressed in mammalian expression system at 10 uM by Kinomescan method relative to control

## O=C(Nc1cccc([C@@H]2CN(c3ncnc4[nH]ccc34)CCN2CCO)c1)Nc1c(F)cccc1N1CCCC1
[1]
  inhibition: 100%
[2]
  inhibition: 100%
[3]
  inhibition: 100%
[4]
  inhibition: 81%
[5]
  inhibition: 100%
[6]
  inhibition: 92%
[7]
  inhibition: 100%
[8]
  inhibition: 89%
[9]
  inhibition: 100%
[10]
  inhibition: 93%

## O=C(Nc1cccc([C@H]2CCCN(c3ncnc4[nH]ccc34)C2)c1)Nc1ccccc1N1CCCC1
[11]
  inhibition: 83%
[12]
  inhibition: 7.1%
[13]
  inhibition: 74%
[14]
  inhibition: 72%
[15]
  inhibition: 63%
[16]
  inhibition: 25%
[17]
  inhibition: 69%
[18]
  inhibition: 93%
[19]
  inhibition: 58%
[20]
  inhibition: 100%
[21]
  inhibition: 59%
[22]
  inhibition: 96%
[23]
  inhibition: 88%
[24]
  inhibition: 100%
[25]
  inhibition: 40%
[26]
  inhibition: 100%
[27]
  inhibition: 37%

Reference: ChEMBL document CHEMBL4387741, “Optimization of novel reversible Bruton's tyrosine kinase inhibitors identified using Tethering-fragment-based screens” (Bioorg Med Chem, 2019)
